Test system: Detoxification protein genes
Experiment: DNA chip mRNA expression in yeast, detoxification protein genes (Table 8)
Format: cell-based, Saccharomyces cerevisiae S288C
Method in brief: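 Expression change after 2 h toxicant exposure (growth-inhibiting, sub-lethal) of log-phase S. cerevisiae S288C at 25° C. Oligo-dT-purified mRNA was labeled with Cy3-dUTP or Cy5-dUTP and hybridized >12 h at 65° C. to a genome-wide chip; ratio of scanned fluorescence to control.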

CCCCCCCCCCCCc1ccc(S(=O)(=O)[O-])cc1.[Na+] [(17), sodium dodecylbenzosulfonate]
The level of expressed mRNA in the presence of chemical substance/The level of expressed mRNA in the absence of chemical substance (yeast gene YBL064C): 1.2
The level of expressed mRNA in the presence of chemical substance/The level of expressed mRNA in the absence of chemical substance (yeast gene YBR008C): 2.0
The level of expressed mRNA in the presence of chemical substance/The level of expressed mRNA in the absence of chemical substance (yeast gene YBR145W): 1.7
The level of expressed mRNA in the presence of chemical substance/The level of expressed mRNA in the absence of chemical substance (yeast gene YBR244W): 1.2
The level of expressed mRNA in the presence of chemical substance/The level of expressed mRNA in the absence of chemical substance (yeast gene YBR293W): 1.0
The level of expressed mRNA in the presence of chemical substance/The level of expressed mRNA in the absence of chemical substance (yeast gene YCL035C): 2.6
The level of expressed mRNA in the presence of chemical substance/The level of expressed mRNA in the absence of chemical substance (yeast gene YCL069W): 1.0
The level of expressed mRNA in the presence of chemical substance/The level of expressed mRNA in the absence of chemical substance (yeast gene YCR083W): 1.3
The level of expressed mRNA in the presence of chemical substance/The level of expressed mRNA in the absence of chemical substance (yeast gene YDL100C): 1.2
The level of expressed mRNA in the presence of chemical substance/The level of expressed mRNA in the absence of chemical substance (yeast gene YDL168W): 0.9
The level of expressed mRNA in the presence of chemical substance/The level of expressed mRNA in the absence of chemical substance (yeast gene YDR256C): 1.0
The level of expressed mRNA in the presence of chemical substance/The level of expressed mRNA in the absence of chemical substance (yeast gene YDR453C): 1.0
The level of expressed mRNA in the presence of chemical substance/The level of expressed mRNA in the absence of chemical substance (yeast gene YDR513W): 1.3
The level of expressed mRNA in the presence of chemical substance/The level of expressed mRNA in the absence of chemical substance (yeast gene YDR538W): 1.0
The level of expressed mRNA in the presence of chemical substance/The level of expressed mRNA in the absence of chemical substance (yeast gene YEL027W): 1.0
The level of expressed mRNA in the presence of chemical substance/The level of expressed mRNA in the absence of chemical substance (yeast gene YEL065W): 0.7
The level of expressed mRNA in the presence of chemical substance/The level of expressed mRNA in the absence of chemical substance (yeast gene YER185W): 2.6
The level of expressed mRNA in the presence of chemical substance/The level of expressed mRNA in the absence of chemical substance (yeast gene YFL050C): 0.8
The level of expressed mRNA in the presence of chemical substance/The level of expressed mRNA in the absence of chemical substance (yeast gene YGL013C): 1.1
The level of expressed mRNA in the presence of chemical substance/The level of expressed mRNA in the absence of chemical substance (yeast gene YGL254W): 0.8
The level of expressed mRNA in the presence of chemical substance/The level of expressed mRNA in the absence of chemical substance (yeast gene YGR088W): 0.9
The level of expressed mRNA in the presence of chemical substance/The level of expressed mRNA in the absence of chemical substance (yeast gene YGR138C): 0.7
The level of expressed mRNA in the presence of chemical substance/The level of expressed mRNA in the absence of chemical substance (yeast gene YGR197C): 1.7
The level of expressed mRNA in the presence of chemical substance/The level of expressed mRNA in the absence of chemical substance (yeast gene YGR209C): 1.3
The level of expressed mRNA in the presence of chemical substance/The level of expressed mRNA in the absence of chemical substance (yeast gene YGR224W): 2.8
The level of expressed mRNA in the presence of chemical substance/The level of expressed mRNA in the absence of chemical substance (yeast gene YHL040C): 1.4
The level of expressed mRNA in the presence of chemical substance/The level of expressed mRNA in the absence of chemical substance (yeast gene YHL047C): 1.2
The level of expressed mRNA in the presence of chemical substance/The level of expressed mRNA in the absence of chemical substance (yeast gene YHR008C): 0.9
The level of expressed mRNA in the presence of chemical substance/The level of expressed mRNA in the absence of chemical substance (yeast gene YHR048W): 0.7
The level of expressed mRNA in the presence of chemical substance/The level of expressed mRNA in the absence of chemical substance (yeast gene YHR053C): 1.0
The level of expressed mRNA in the presence of chemical substance/The level of expressed mRNA in the absence of chemical substance (yeast gene YHR055C): 0.9
The level of expressed mRNA in the presence of chemical substance/The level of expressed mRNA in the absence of chemical substance (yeast gene YIR002C): 1.1
The level of expressed mRNA in the presence of chemical substance/The level of expressed mRNA in the absence of chemical substance (yeast gene YIR038C): 2.8
The level of expressed mRNA in the presence of chemical substance/The level of expressed mRNA in the absence of chemical substance (yeast gene YJL101C): 0.9
The level of expressed mRNA in the presence of chemical substance/The level of expressed mRNA in the absence of chemical substance (yeast gene YJR104C): 0.9
The level of expressed mRNA in the presence of chemical substance/The level of expressed mRNA in the absence of chemical substance (yeast gene YKL026C): 1.6
The level of expressed mRNA in the presence of chemical substance/The level of expressed mRNA in the absence of chemical substance (yeast gene YKL064W): 1.3
The level of expressed mRNA in the presence of chemical substance/The level of expressed mRNA in the absence of chemical substance (yeast gene YKR066C): 0.9
The level of expressed mRNA in the presence of chemical substance/The level of expressed mRNA in the absence of chemical substance (yeast gene YKR105C): 0.8
The level of expressed mRNA in the presence of chemical substance/The level of expressed mRNA in the absence of chemical substance (yeast gene YKR106W): 0.9
The level of expressed mRNA in the presence of chemical substance/The level of expressed mRNA in the absence of chemical substance (yeast gene YLL028W): 1.2
The level of expressed mRNA in the presence of chemical substance/The level of expressed mRNA in the absence of chemical substance (yeast gene YLL057C): 3.0
The level of expressed mRNA in the presence of chemical substance/The level of expressed mRNA in the absence of chemical substance (yeast gene YLL060C): 1.9
The level of expressed mRNA in the presence of chemical substance/The level of expressed mRNA in the absence of chemical substance (yeast gene YLR043C): 1.5
The level of expressed mRNA in the presence of chemical substance/The level of expressed mRNA in the absence of chemical substance (yeast gene YLR046C): 5.2
The level of expressed mRNA in the presence of chemical substance/The level of expressed mRNA in the absence of chemical substance (yeast gene YML028W): 1.1
The level of expressed mRNA in the presence of chemical substance/The level of expressed mRNA in the absence of chemical substance (yeast gene YML116W): 1.0
The level of expressed mRNA in the presence of chemical substance/The level of expressed mRNA in the absence of chemical substance (yeast gene YMR015C): 1.0
The level of expressed mRNA in the presence of chemical substance/The level of expressed mRNA in the absence of chemical substance (yeast gene YMR038C): 1.2
The level of expressed mRNA in the presence of chemical substance/The level of expressed mRNA in the absence of chemical substance (yeast gene YNL239W): 1.1
The level of expressed mRNA in the presence of chemical substance/The level of expressed mRNA in the absence of chemical substance (yeast gene YNL241C): 1.0
The level of expressed mRNA in the presence of chemical substance/The level of expressed mRNA in the absence of chemical substance (yeast gene YNL259C): 2.6
The level of expressed mRNA in the presence of chemical substance/The level of expressed mRNA in the absence of chemical substance (yeast gene YOL158C): 1.4
The level of expressed mRNA in the presence of chemical substance/The level of expressed mRNA in the absence of chemical substance (yeast gene YOR031W): 1.7
The level of expressed mRNA in the presence of chemical substance/The level of expressed mRNA in the absence of chemical substance (yeast gene YOR153W): 2.5
The level of expressed mRNA in the presence of chemical substance/The level of expressed mRNA in the absence of chemical substance (yeast gene YOR247W): 1.2
The level of expressed mRNA in the presence of chemical substance/The level of expressed mRNA in the absence of chemical substance (yeast gene YOR251C): 0.9
The level of expressed mRNA in the presence of chemical substance/The level of expressed mRNA in the absence of chemical substance (yeast gene YOR273C): 3.2
The level of expressed mRNA in the presence of chemical substance/The level of expressed mRNA in the absence of chemical substance (yeast gene YPL163C): 1.4
The level of expressed mRNA in the presence of chemical substance/The level of expressed mRNA in the absence of chemical substance (yeast gene YPR200C): 1.1
